SMILES strings stand for the structures. In brackets after ≈: the same amount, converted by molar mass. Where two headings read alike, the source gives them in different places.

Series [1] in a line: Particle size distribution and surface area. Format: physicochemical. On the procedure:
Micronized darunavir dimethylsulfoxide solvate was prepared from the non-micronized form by milling using a jet mill (Super fine vortex Mill™).

Series [2] can be described thus: Aqueous solubility in buffers, 24 h shaking at 25° C., HPLC. The series is classed as physicochemical. The conditions noted are these: 24 hours at 25° C.; for solubility at 24 h: 25 °C, thermodynamic from solid. On the procedure:
The aqueous solubility of the tetrahydrofuran solvate of darunavir of the present invention was measured. Specifically, about 10 mg of the compound was accurately weighed into a 4 ml clear glass vial followed by the addition of 2.5 ml buffer (at different pH) to the vial. The vial was then mounted on a Thermomixer and was kept shaking for 24 hours at 25° C. The solution was filtered through 0.45 μm PTFE filter. The pH value and concentration of the filtrate were checked by pH meter and HPLC (Agilent 1200; Column: Zorbax SB C18, 4.6 mm×150 mm ID×5 μm; Profile of mobile phase: t=0 water 70, ACN 30; t=15,20 water 0, ACN 100; Column temperature 30° C.; Mobile rate 1.0 mL/min; Detector wavelength 265 nm; The typical retention time of Darunavir is 7.7 min), respectively.
The aqueous solubility of the dimethylsulfoxide solvate of darunavir of the present invention was measured. Specifically, about 10 mg of the compound was accurately weighed into a 4 ml clear glass vial followed by the addition of 2.5 ml buffer (at different pH) to the vial. The vial was then mounted on a Thermomixer and kept shaking for 24 hours at 25° C. The solution was filtered through 0.45 μm PTFE filter. The pH value and concentration of the filtrate were checked by pH meter and HPLC, respectively.
Specifically, about 10 mg of the compound was accurately weighed into a 4 ml clear glass vial followed by the addition of 2.5 ml buffer (at different pH) to the vial. The vial was then mounted on a Thermomixer and kept shaking for 24 hours at 25° C. The solution was filtered through 0.45 μm PTFE filter. The pH value and concentration of the filtrate were checked by pH meter and HPLC, respectively. The results are summarized in Table 11 and in FIG. 8 panel C.

Series [3] can be described thus: Hygroscopicity (DVS) from 0% to 90%. The series is classed as physicochemical. The conditions noted are these: for weight gain from 0% to 90% (DVS) / hygroscopicity (in words): 25° C.; for hygroscopicity (in words): DVS 0% to 90%. On the procedure: About 10 mg of the tetrahydrofuran solvate form of the present invention were used to test the hygroscopicity (DVS) from 0% to 90% according to the details on Table 2.
About 10 mg of the dimethylsulfoxide solvate form of the present invention were used to test the hygroscopicity (DVS) from 0% to 90% according to the details on Table 2 hereinabove.
The hygroscopicities of the Darunavir forms of the present invention were compared to the hygroscopicity of Darunavir ethanolate API.

A short description of another series: Bulk density. The series is classed as physicochemical.
For series [4] the following is noted: water at 20° C.; cited from earlier work.
Setting [5] is: pH 1.2 buffer, footnote *degraded.
[6] abbreviates: listed as dimethylsulfoxide solvate form.
Setting [7] is: listed as tetrahydrofuran solvate form.

In series [1] (listed as Micronized), `CC(C)CN(C[C@@H](O)[C@H](Cc1ccccc1)NC(=O)O[C@H]1CO[C@H]2OCC[C@H]21)S(=O)(=O)c1ccc(N)cc1` [[(1S,2R)-3-[[(4-aminophenyl)sulfonyl](2-methylpropyl)amino]-2-hydroxy-1-(phenylmethyl)propyl]-carbamic acid (3R,3aS,6aR)-hexahydrofuro[2,3-b]furan-3-yl ester] displayed a D10 of 1.5 μm, a D50 of 3.7 μm, a D90 of 7.2 μm and a Specific surface area of 2.6 m^2/g. For the same compound, in series [1] (listed as Micronized), the Surface weighted mean was 2.3 μm and the Vol. weighted mean worked out at 4.1 μm. This compound also returned a Dissolution (15 min, 600 mg/vessel, 75 rpm, 900 mL 2.0% Tween-20 in 0.05M sodium phosphate buffer pH 3.0, 37° C., listed as Micronized) of 89.30%. Moreover, where the note is “30 min, same medium, listed as Micronized”, the Dissolution is recorded as 94.72%. Where the note is “45 min, same medium, listed as Micronized”, this compound had a Dissolution of 95.98%. The Dissolution (60 min, same medium, listed as Micronized) was determined as 94.95%.
Usually Solubility stands for the concentration that dissolves in the medium under given conditions. The low end stands for little dissolved substance, the high end for much dissolved substance. Regarding `CC(C)CN(C[C@@H](O)[C@H](Cc1ccccc1)NC(=O)O[C@H]1CO[C@H]2OCC[C@H]21)S(=O)(=O)c1ccc(N)cc1` [amorphous darunavir, [(1S,2R)-3-[[(4-aminophenyl)sulfonyl](2-methylpropyl)amino]-2-hydroxy-1-(phenylmethyl)propyl]-carbamic acid (3R,3aS,6aR)-hexahydrofuro[2,3-b]furan-3-yl ester], the Solubility in series [2] (setting [5]) is 1.73* mg/ml; in series [2] (pH 4.5 buffer) it was 0.27 mg/mL (≈ 493 µM); in series [2] (pH 6.8 buffer) it was 0.24 mg/mL (≈ 438 µM); in series [2] (pH 7.4 buffer), 0.23 mg/mL (≈ 420 µM); in series [2] (water), 0.27 mg/mL (≈ 493 µM). Also, in series [3], the “weight gain from 0% to 90% (DVS)” value was 2.617%. Moreover, in series [3], the “hygroscopicity (in words)” value is on record as “hygroscopic”. The bulk density in the series “Bulk density” was determined as 0.445 ± 0.012 g/mL.
`CC(C)CN(C[C@@H](O)[C@H](Cc1ccccc1)NC(=O)O[C@H]1CO[C@H]2OCC[C@H]21)S(=O)(=O)c1ccc(N)cc1` [darunavir dimethylsulfoxide solvate, [(1S,2R)-3-[[(4-aminophenyl)sulfonyl](2-methylpropyl)amino]-2-hydroxy-1-(phenylmethyl)propyl]-carbamic acid (3R,3aS,6aR)-hexahydrofuro[2,3-b]furan-3-yl ester]: the Solubility in series [2] (setting [5]) was 1.36* mg/ml; in series [2] (pH 4.5 buffer) it was 0.22 mg/mL; in series [2] (pH 6.8 buffer), 0.21 mg/mL; in series [2] (pH 7.4 buffer), 0.20 mg/mL; in series [2] (water), 0.23 mg/mL. For the same compound, the “weight gain from 0% to 90% (DVS)” value in series [3] and in series [3] (setting [6]) was 0.9431% in each case. In addition, the “hygroscopicity (in words)” value in series [3] and in series [3] (setting [6]) was “only slightly hygroscopic” in each case. In series [1] (listed as Non-micronized), the D10 is recorded as 3.9 μm. In series [1] (listed as Non-micronized), this compound returned a D50 of 29.2 μm. The D90 in series [1] (listed as Non-micronized) is on record as 99.7 μm. The Specific surface area in series [1] (listed as Non-micronized) came out at 0.9 m^2/g. Besides, in series [1] (listed as Non-micronized), the Surface weighted mean came out at 6.5 μm. Further, the Vol. weighted mean in series [1] (listed as Non-micronized) is 42.0 μm. Moreover, the Dissolution is, setting by setting: (15 min, 600 mg/vessel, 75 rpm, 900 mL 2.0% Tween-20 in 0.05M sodium phosphate buffer pH 3.0, 37° C., listed as Non-micronized) 56.83%; (30 min, same medium, listed as Non-micronized) 81.61%; (45 min, same medium, listed as Non-micronized) 88.06%; (60 min, same medium, listed as Non-micronized) 90.45%. For the same compound, in the series “Bulk density”, the bulk density is 0.472 ± 0.008 g/mL. The “denser when compared to the bulk density of the known ethanolate form” value in the series “Bulk density” is on record as “approximately 26%”.
Regarding `CC(C)CN(C[C@@H](O)[C@H](Cc1ccccc1)NC(=O)O[C@H]1CO[C@H]2OCC[C@H]21)S(=O)(=O)c1ccc(N)cc1` [darunavir ethanolate, [(1S,2R)-3-[[(4-aminophenyl)sulfonyl](2-methylpropyl)amino]-2-hydroxy-1-(phenylmethyl)propyl]-carbamic acid (3R,3aS,6aR)-hexahydrofuro[2,3-b]furan-3-yl ester, reference compound], the solubility in water result in series [4] is listed as “approximately 0.15 mg/mL”. Moreover, in series [3], the “weight gain from 0% to 90% (DVS)” value is recorded as 2.180% and the “hygroscopicity (in words)” value was “hygroscopic”. In addition, the “loss of solvate during the desorption measurement” value in series [3] (DVS desorption) is listed as “lost the solvate ethanol molecules”. The same compound returned a bulk density in the series “Bulk density” (known ethanolate form, comparator) of 0.374 ± 0.009 g/mL.
Broadly, the solubility is the dissolved amount per volume that the medium holds. For `CC(C)CN(C[C@@H](O)[C@H](Cc1ccccc1)NC(=O)O[C@H]1CO[C@H]2OCC[C@H]21)S(=O)(=O)c1ccc(N)cc1` [darunavir tetrahydrofuran solvate, [(1S,2R)-3-[[(4-aminophenyl)sulfonyl](2-methylpropyl)amino]-2-hydroxy-1-(phenylmethyl)propyl]-carbamic acid (3R,3aS,6aR)-hexahydrofuro[2,3-b]furan-3-yl ester], the solubility at 24 h was 1.47 mg/mL in series [2] (pH 1.2 buffer, pH 1.2, simulated gastric fluid, footnote *degraded); 0.27 mg/mL in series [2] (pH 4.5 buffer, pH 4.5, aqueous buffer); 0.24 mg/mL in series [2] (pH 6.8 buffer, pH 6.8, aqueous buffer); 0.23 mg/mL in series [2] (pH 7.4 buffer, pH 7.4, aqueous buffer); 0.27 mg/mL in series [2] (water). For the same compound, the “weight gain from 0% to 90% (DVS)” value in series [3] and in series [3] (setting [7]) was 1.366% in each case. In addition, the “hygroscopicity (in words)” value is on record as “only slightly hygroscopic” in series [3] and “slightly hygroscopic” in series [3] (setting [7]). In “Bulk density”, this compound had a bulk density of 0.431 ± 0.007 g/mL.

Values taken from patent US9453024B2, “Polymorphs of darunavir” (MAPI PHARMA LTD., priority 2009, dated 2016).
